Measurements taken from patent publication US5973204A (priority 1997, dated 1999).

How the values were obtained:
[1] = target: T1, glycine receptors (Rattus norvegicus, UniProt P07727); assay: binding tests, affinity to glycine receptors (% displacement)
T1 construct: from tissue; host or cells: rat spinal cord / brainstem synaptic membranes (inferred from the cited method)
From the text: The compounds of the invention have shown in binding tests a higher affinity to glycine receptors (Table I) than a structurally similar compound, i.e. thiocolchicoside.
The interaction of the compositions of the invention with their receptors has been evaluated according to the procedure by A. B. Young and S. H. Snyder reported in Proc. Natl. Acad. Sci U.S.A. 71, 4002, 1974.

[2] = tested on: polysynaptic reflexes induced by strychnine; assay: inhibition of the polysynaptic reflexes induced by strychnine in rabbits; format: in vivo, rabbit; conditions: for reduction of polysynaptic reflexes / removal of the potentiation of strychnine-induced reflexes: rabbits, 1 mg/kg intramuscularly
From the text: The inhibition of the polysynaptic reflexes induced by strychnine in rabbits has been studied for the in vivo tests.

[3] = acute toxicity (DL50) in the mouse; conditions: in vivo, iv
Procedure: The DL50 of the compounds I-III is, in fact, higher than 30 mg/kg i.v. in the mouse, the DL50 of thiocolchicoside being 7.5 mg/kg.

T1 sequence (P07727 29-457): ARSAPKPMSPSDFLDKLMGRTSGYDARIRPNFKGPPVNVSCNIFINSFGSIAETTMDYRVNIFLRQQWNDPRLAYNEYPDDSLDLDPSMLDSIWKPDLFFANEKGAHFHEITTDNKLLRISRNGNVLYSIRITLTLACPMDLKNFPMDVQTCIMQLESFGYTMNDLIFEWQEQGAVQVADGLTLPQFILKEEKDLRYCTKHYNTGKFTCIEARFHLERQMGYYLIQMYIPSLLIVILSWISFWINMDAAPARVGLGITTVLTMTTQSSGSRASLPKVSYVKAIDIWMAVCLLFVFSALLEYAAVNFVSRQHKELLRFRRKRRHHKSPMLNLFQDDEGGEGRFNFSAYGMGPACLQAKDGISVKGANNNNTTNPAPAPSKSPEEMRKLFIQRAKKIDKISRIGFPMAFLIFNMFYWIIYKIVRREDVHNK
T1 sequence (P20781 23-496 partner): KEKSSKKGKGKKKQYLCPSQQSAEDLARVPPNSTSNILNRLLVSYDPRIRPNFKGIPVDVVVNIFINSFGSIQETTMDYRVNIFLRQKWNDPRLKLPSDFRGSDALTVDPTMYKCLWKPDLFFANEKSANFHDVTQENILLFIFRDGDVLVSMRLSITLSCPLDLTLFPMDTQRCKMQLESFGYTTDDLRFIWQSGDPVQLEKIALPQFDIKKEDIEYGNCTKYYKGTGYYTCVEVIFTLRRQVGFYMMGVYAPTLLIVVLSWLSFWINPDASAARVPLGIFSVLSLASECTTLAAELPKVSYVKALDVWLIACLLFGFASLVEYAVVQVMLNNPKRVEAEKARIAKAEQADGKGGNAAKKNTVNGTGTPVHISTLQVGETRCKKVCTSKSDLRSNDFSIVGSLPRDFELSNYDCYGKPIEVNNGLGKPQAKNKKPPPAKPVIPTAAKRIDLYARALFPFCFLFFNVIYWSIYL

Row | Compound | inhibition at 0.1 µM [1] | inhibition at 1 µM [1] | reduction of polysynaptic reflexes [2] | removal of the potentiation of strychnine-induced reflexes [2] | inhibition at 0.5 µM ([1]; 0.5 μM) | minimal effective dose at 1 mg/kg ([2]; Oryctolagus cuniculus, read-out: minimum dose to obtain comparable effects) | LD50 [3]
1 | COc1c(OCC(O)CO)cc2c(c1OC)-c1ccc(SC)c(=O)cc1[C@@H](NC(C)=O)CC2 (some centres unmarked) [Compound II, 3-demethyl-3-(2,3-dihydroxyrpropyl)thiocolchicine] | 35% | 65% | 60% | removing completely | – | – | –
2 | COc1c(O[C@@H]2O[C@H](CO)[C@@H](O)[C@H](O)[C@H]2O)cc2c(c1OC)-c1ccc(SC)c(=O)cc1[C@@H](NC(C)=O)CC2 [thiocolchicoside, 3-demethyl-thiocolchicine glucoside, reference compound] | 20% | 70% | – | – | 45% | ≥ 5 mg/kg | 7.5 mg/kg
3 | COc1c(OCC2CO2)cc2c(c1OC)-c1ccc(SC)c(=O)cc1[C@@H](NC(C)=O)CC2 (some centres unmarked) [Compound I, 3-demethyl-3-glycidylthiocolchicine] | 40% | 85% | 50% | removing completely | – | – | –
4 | COc1c(OCC(O)CN)cc2c(c1OC)-c1ccc(SC)c(=O)cc1[C@@H](NC(C)=O)CC2 (some centres unmarked) [Compound III, 3-demethyl-3-(3-amino-2-hydroxypropyl)thiocolchicine] | 50% | 75% | 65% | removing completely | – | – | –
